In ChEMBL document CHEMBL4431306, “Gamma Secretase Modulators: New Alzheimer's Drugs on the Horizon?” (J Med Chem, 2016):
pEC50: −log10 of the molar value. Each block holds one compound with its values, some of them ahead of it.

Legend:
Gamma-secretase [1] = assay: Modulation of gamma-secretase in human SH-SY5Y cells expressing human APP751 assessed as reduction in amyloid beta 42 production after 24 hrs by sandwich ELISA; assay type: cell-based
Gamma-secretase [2] = assay: Modulation of gamma-secretase (unknown origin) assessed as reduction in amyloid beta 42 production by ELISA; assay type: protein-complex assay, Homo sapiens
Gamma-secretase [3] = assay: Modulation of gamma-secretase in human SK-N-BE(2) cells expressing human APP695 assessed as reduction in amyloid beta 42 production incubated overnight by sandwich immunoassay; assay type: cell-based
Homo sapiens [4] = assay: Reduction in amyloid beta 42 levels in human plasma at 250 mg, po administered as single dose measured over 24 hrs post dose by sandwich enzyme immunoassay; assay type: functional
Homo sapiens [5] = assay: Reduction in amyloid beta (1 to 42 residues) […] in human plasma at 250 mg, po administered as single dose measured up to 24 hrs relative to control; assay type: functional
Mus musculus [6] = assay: Reduction in amyloid beta 42 levels in mouse brain at 30 mg/kg, po administered as single dose measured 4 hrs post dose by electrochemiluminescence assay; assay type: functional
Gamma-secretase [7] = assay: Modulation of gamma-secretase in human H4 cells expressing human APP695 assessed as reduction in amyloid beta 42 production after 22 hrs by electrochemiluminescence assay; assay type: cell-based
Gamma-secretase [8] = assay: Modulation of gamma-secretase in human SH-SY5Y cells expressing human APP751 assessed as reduction in amyloid beta 42 production after 16 to 18 hrs by ELISA; assay type: cell-based
Gamma-secretase [9] = assay: Modulation of gamma-secretase in human H4 cells expressing human APP751 assessed as reduction in amyloid beta 42 production after 16 to 18 hrs by sandwich ELISA; assay type: cell-based
Gamma-secretase [10] = assay: Modulation of gamma-secretase in human H4 cells expressing APP Swedish mutant assessed as inhibition of amyloid beta (1 to 42 residues) production; assay type: cell-based
Homo sapiens [11] = organism: Homo sapiens; assay: Modulation of gamma-secretase in human H4 cells expressing human APP695 assessed as inhibition of amyloid beta 42 production at 10 uM after 16 hrs by sandwich ELISA; assay type: functional
Gamma-secretase [12] = assay: Modulation of gamma-secretase in human SH-SY5Y cells expressing human APP751 assessed as reduction in amyloid beta 42 production after 18 to 22 hrs by sandwich ELISA; assay type: cell-based
Mus musculus [13] = assay: Reduction in amyloid beta 42 levels in Tg 2576 mouse brain at 50 to 100 mg/kg administered via oral gavage for 3 days by LC-MS/MS analysis; assay type: functional
Mus musculus [14] = assay: Reduction in amyloid beta 42 levels in mouse brain at 30 mg/kg, po administered as single dose measured 4 hrs post dose by ELISA; assay type: functional
Mus musculus [15] = assay: Increase in amyloid beta 38 levels in mouse brain at 30 mg/kg, po administered as single dose measured 4 hrs post dose by ELISA; assay type: functional
Mus musculus [16] = assay: Reduction in amyloid beta (1 to 42 residues) AUC in triple transgenic mouse brain at 30 mg/kg administered via oral gavage measured up to 24 hrs by UPLC-MS-MS analysis; assay type: functional
Mus musculus [17] = assay: Reduction in amyloid beta (1 to 42 residues) AUC in triple transgenic mouse brain at 100 mg/kg administered via oral gavage measured up to 24 hrs by UPLC-MS-MS analysis; assay type: functional
Rattus norvegicus = assay: Reduction in amyloid beta (1 to 42 residues) AUC in Sprague-Dawley rat brain at 10 mg/kg administered via oral gavage measured up to 24 hrs by UPLC-MS-MS analysis; assay type: functional
Gamma-secretase [18] = assay: Modulation of gamma-secretase in human H4 cells expressing human APP695 assessed as inhibition of amyloid beta 42 production after 16 hrs by sandwich ELISA; assay type: cell-based
Mus musculus [19] = assay: Reduction in amyloid beta 42 levels in mouse brain at 10 mg/kg, po administered as single dose measured 4 hrs post dose by electrochemiluminescence assay; assay type: functional

pEC50 (Gamma-secretase [1]): 6.46
SMILES: CCn1nc2c(c1Nc1nc(-c3ccc(-n4cnc(C)c4)cc3)cs1)CCCC2

pEC50 (Gamma-secretase [7]): 7.66
SMILES: COc1cc(Nc2ncc3c(n2)N(C)C2(CCCC2)C(=O)N3CC(F)(F)F)ccc1-n1cnc(C)c1

pEC50 (Gamma-secretase [8]): 8.22
SMILES: COc1cc(-c2csc(N3CCCn4nc5c(c43)CCCC5)n2)ccc1-n1cnc(C)c1

pEC50 (Gamma-secretase [9]): 7.85
SMILES: COc1cc(Nc2ncc3c(n2)N(c2cc(F)cc(F)c2)CCO3)ccc1-n1cnc(C)c1

pEC50 (Gamma-secretase [1]): 7.52
SMILES: CCn1nc2c(c1Nc1nc(-c3ccc(-n4cnc(C)c4)c(OC)n3)cs1)CCCC2

pEC50 (Gamma-secretase [9]): 7.00
SMILES: COc1cc(Nc2ncc3c(n2)N(CC(F)(F)F)CCO3)ccc1-n1cnc(C)c1

pEC50 (Gamma-secretase [9]): 7.80
SMILES: COc1cc(Nc2ncc3c(n2)N(C)[C@@H](c2ccccc2)CO3)ccc1-n1cnc(C)c1

pEC50 (Gamma-secretase [10]): 7.54
SMILES: CNc1nc(Cc2ccccc2)nc(Nc2ccc(-n3cnc(C)c3)c(OC)c2)n1

pEC50 (Gamma-secretase [7]): 7.34
SMILES: CCN1C(=O)C2CCCCCN2c2nc(Nc3ccc(-n4cnc(C)c4)c(OC)c3)ncc21 (configuration not stated)

pEC50 (Gamma-secretase [9]): 7.41
SMILES: COc1cc(Nc2ncc3c(n2)N(c2ccccc2)CCO3)ccc1-n1cnc(C)c1

pEC50 (Gamma-secretase [7]): 7.05
SMILES: COc1cc(Nc2nc3c(c(N4CCCCC4)n2)SC2(CCC2)C3)ccc1-n1cnc(C)c1

pEC50 (Gamma-secretase [9]): 7.15
SMILES: COc1cc(Nc2ncc3c(n2)N2CCCC2CO3)ccc1-n1cnc(C)c1 (configuration not stated)

pEC50 (Gamma-secretase [10]): 8.22
SMILES: COc1cc(Nc2nc3n(n2)CCCC[C@H]3c2ccc(F)cc2)ccc1-n1cnc(C)c1
inhibition in vivo at 30 mg/kg (Mus musculus [16]): 31% | inhibition in vivo at 100 mg/kg (Mus musculus [17]): 55% | inhibition in vivo at 10 mg/kg (Rattus norvegicus): 47%

pEC50 (Gamma-secretase [9]): 7.31
SMILES: COc1cc(Nc2ncc3c(n2)N(C)C2(CC2)CO3)ccc1-n1cnc(C)c1

The remaining lines, values behind:

SMILES: CC(=O)O[C@@H]([C@H]1C[C@@H](C)C2=C(O1)[C@H](O)[C@@]1(C)[C@@H]3CC[C@H]4C(C)(C)[C@@H](O[C@@H]5OC[C@@H](O)[C@H](O)[C@H]5O)CC[C@@]45C[C@@]35CC[C@]21C)C(C)(C)O
pEC50 (Gamma-secretase [2]): 7.00

SMILES: Cc1cn(-c2ccc3n(c2=O)CC2CCC(Cc4cc(C(F)(F)F)cc(C(F)(F)F)c4)N2C3=O)cn1 (configuration not stated)
pEC50 (Gamma-secretase [3]): 7.30

SMILES: COc1nc(/C=C/c2nc3n(n2)CCC[C@H]3c2ccccc2C(F)(F)F)ccc1-n1cnc(C)c1 [E-2212]
inhibition (INH) (Homo sapiens [4]): 54% | inhibition (INH) (Homo sapiens [5]): 44%

SMILES: CCn1cc(C(C)N2C(=O)c3ccc(-n4cnc(C)c4)c(=O)n3C[C@H]2C)c2cc(Cl)c(F)cc21 (some centres not stated)
pEC50 (Gamma-secretase [3]): 8.00 | inhibition in vivo at 30 mg/kg (Mus musculus [6]): 61%

SMILES: COc1cc(N2CCC(Nc3ncc4c(n3)N(c3ccccc3)CCO4)CC2)ccn1
pEC50 (Gamma-secretase [9]): 7.60

SMILES: C[C@H](CCC(=O)O)[C@H]1CC[C@H]2[C@@H]3CC[C@@H]4C[C@H](O)CC[C@]4(C)[C@H]3CC[C@]12C [LITHOCHOLIC ACID]
inhibition at 10 µM (Homo sapiens [11]): 62%

SMILES: CCN(CC)c1ccc(Nc2nc(-c3ccc(-n4ccnc4)cc3)cs2)c(C)c1
pEC50 (Gamma-secretase [12]): 5.82

SMILES: CCc1cc(Nc2nc(-c3ccc(-n4cnc(C)c4)c(F)c3)cs2)c(C)cc1C
inhibition (INH) (Mus musculus [13]): 30 - 40%

SMILES: COc1cc2[nH]c(-c3cn4c(n3)C(c3ccccc3Cl)OCC4)cc2cc1C#N (configuration not stated)
pEC50 (Gamma-secretase [3]): 7.68 | inhibition in vivo at 30 mg/kg (Mus musculus [14]): 73% | Activity (Mus musculus [15]): 10%

SMILES: COc1cc2[nH]c(-c3cn4c(n3)C(c3cccc(F)c3C)OCC4)cc2cc1C#N (configuration not stated)
pEC50 (Gamma-secretase [3]): 7.70 | inhibition in vivo at 30 mg/kg (Mus musculus [14]): 66% | Activity (Mus musculus [15]): 40%

SMILES: COc1cc(N2CCC(Nc3ncc4c(n3)N(CC(F)(F)F)CCO4)CC2)ccn1
pEC50 (Gamma-secretase [9]): 6.98

SMILES: Cc1cc([C@@H]2CC[C@@H](Nc3ncc4c(n3)N(c3ccccc3Cl)CCO4)CO2)ccn1
pEC50 (Gamma-secretase [9]): 7.39

SMILES: CCn1nc2c(c1Nc1nc(-c3ccc(-n4cnc(C)c4)nc3)cs1)CCCC2
pEC50 (Gamma-secretase [1]): 5.89

SMILES: C[C@H](CCC(=O)O)[C@H]1CC[C@H]2[C@@H]3CC[C@@H]4CCCC[C@]4(C)[C@H]3CC[C@]12C [URSOCHOLANIC ACID]
pEC50 (Gamma-secretase [18]): 5.24

SMILES: COc1cc2[nH]c(-c3cn4c(n3)C(c3ccccc3C(F)(F)F)OCC4)cc2cc1C#N (configuration not stated)
pEC50 (Gamma-secretase [3]): 7.35 | inhibition in vivo at 30 mg/kg (Mus musculus [14]): 57% | Activity (Mus musculus [15]): 41%

SMILES: Cc1cn(-c2ccc3n(c2=O)C[C@@H](C)N(C(C)c2coc4cc(F)c(C(F)(F)F)cc24)C3=O)cn1 (some centres not stated)
pEC50 (Gamma-secretase [3]): 8.22 | inhibition in vivo at 10 mg/kg (Mus musculus [19]): 42%
